Experimental data taken from patent US8809377B2, “Deubiquitinase inhibitors and methods for use of the same” (The Regents of the University of Michigan, priority 2010, dated 2014).

Legend:
[1] = system: Vesicular Stomatitis Virus (VSV); assay type: cell-based
[2] = biological target: UCH-L1 (Homo sapiens, UniProt P09936); assay: Ub-AMC assay on purified DUB; assay type: biochemical; details: 5 μM
Description: (§1) Purified DUBs at optimal concentrations (USPS; 20 nM, UCH-L1; 20 nM, UCH-L3; 5 nM, USP9x; immunoprecipitated from 500 μg Z138 cell lysate) were incubated in DUB buffer containing WP1130, vehicle alone (DMSO) or 1 mM NEM (positive control for DUB inhibition) in a 100 μL reaction volume for 30 min. The reaction was initiated by the addition of 500 nM Ub-AMC and the release of AMC-fluorescence was recorded at ex/em 380/480 using a spectrofluorometer.
(§2) USP9x was immunoprecipitated from Z138 cell lysates, prepared in DUB buffer and the beads were incubated with vehicle alone or WP1130 for 30 min. Ub-AMC (500 nM) was added to each reaction and fluorescence was monitored every minute for up to 30 minutes. The maximum fluorescence observed at the end of the linear phase of substrate cleavage in control and WP1130 treated DUBs was used as a gauge to estimate DUB activity and % inhibition. Treatment with 5 μM WP1130 reduced the activities of USP9x, USP5 and UCH-L1 by 80% or more.

[3] = biological target: UCH-L3 (Homo sapiens, UniProt P15374); assay: Ub-AMC assay on purified DUB; assay type: biochemical
Description: as §1, §2

[4] = biological target: T1, USP5 (Homo sapiens, UniProt P45974); assay: Ub-AMC assay on purified DUB; assay type: biochemical; details: 5 μM
T1 construct: endogenous in cells; host or cells: Z138
T1 sequence (P45974 1-858): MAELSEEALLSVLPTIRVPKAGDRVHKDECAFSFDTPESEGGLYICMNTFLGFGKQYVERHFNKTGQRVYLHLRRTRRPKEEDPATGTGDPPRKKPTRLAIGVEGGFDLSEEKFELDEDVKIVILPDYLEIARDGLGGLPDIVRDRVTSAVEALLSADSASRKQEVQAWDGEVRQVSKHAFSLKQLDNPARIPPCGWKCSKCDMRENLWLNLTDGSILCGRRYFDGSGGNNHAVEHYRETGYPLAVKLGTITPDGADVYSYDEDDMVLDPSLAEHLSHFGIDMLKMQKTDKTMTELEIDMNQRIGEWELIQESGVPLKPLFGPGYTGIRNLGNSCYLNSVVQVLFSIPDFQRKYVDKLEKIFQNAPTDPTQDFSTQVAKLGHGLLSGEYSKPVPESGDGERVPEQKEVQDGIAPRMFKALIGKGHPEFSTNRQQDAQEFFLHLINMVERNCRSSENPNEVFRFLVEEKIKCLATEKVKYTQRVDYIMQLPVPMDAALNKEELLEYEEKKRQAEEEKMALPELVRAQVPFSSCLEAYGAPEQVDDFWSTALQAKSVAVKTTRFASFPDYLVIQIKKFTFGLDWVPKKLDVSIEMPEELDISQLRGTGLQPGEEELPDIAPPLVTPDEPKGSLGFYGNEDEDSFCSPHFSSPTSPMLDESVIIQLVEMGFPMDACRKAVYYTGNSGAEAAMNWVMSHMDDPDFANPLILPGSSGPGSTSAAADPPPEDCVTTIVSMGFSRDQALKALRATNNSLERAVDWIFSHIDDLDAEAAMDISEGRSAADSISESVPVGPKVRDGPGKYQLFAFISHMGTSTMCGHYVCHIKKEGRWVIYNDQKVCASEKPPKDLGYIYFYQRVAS
Description: as §1, §2

Sequence of UCH-L3 (P15374 whole entry, species assumed): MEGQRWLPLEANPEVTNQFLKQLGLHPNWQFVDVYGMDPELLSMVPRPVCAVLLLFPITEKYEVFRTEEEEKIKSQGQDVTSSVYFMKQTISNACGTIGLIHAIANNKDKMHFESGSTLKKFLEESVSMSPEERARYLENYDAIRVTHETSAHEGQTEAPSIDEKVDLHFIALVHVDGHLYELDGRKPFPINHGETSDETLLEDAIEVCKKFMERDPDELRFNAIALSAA
Sequence of UCH-L1 (P09936 whole entry, species assumed): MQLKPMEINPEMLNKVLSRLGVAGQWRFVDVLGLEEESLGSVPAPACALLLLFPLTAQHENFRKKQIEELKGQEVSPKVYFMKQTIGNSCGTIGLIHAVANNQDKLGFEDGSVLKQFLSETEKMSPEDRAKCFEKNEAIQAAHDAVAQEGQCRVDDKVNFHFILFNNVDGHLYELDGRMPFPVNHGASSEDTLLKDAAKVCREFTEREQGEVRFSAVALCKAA

CCC[C@H](NC(=O)/C(C#N)=C/c1cccc(Br)n1)c1ccccc1 [WP1130]
block of virus infection [1]: not | reduction of UCH-L1 activity [2]: ≥ 80% | inhibition of UCH-L3 activity [3]: No inhibition | reduction of USP5 activity [4]: ≥ 80%
